Target: PIK3CA (human) (UniProt P42336)
Assay: Inhibition of PIK3CA Kinase Activity

Chain of PIK3CA (human) (P42336 whole entry, looked up): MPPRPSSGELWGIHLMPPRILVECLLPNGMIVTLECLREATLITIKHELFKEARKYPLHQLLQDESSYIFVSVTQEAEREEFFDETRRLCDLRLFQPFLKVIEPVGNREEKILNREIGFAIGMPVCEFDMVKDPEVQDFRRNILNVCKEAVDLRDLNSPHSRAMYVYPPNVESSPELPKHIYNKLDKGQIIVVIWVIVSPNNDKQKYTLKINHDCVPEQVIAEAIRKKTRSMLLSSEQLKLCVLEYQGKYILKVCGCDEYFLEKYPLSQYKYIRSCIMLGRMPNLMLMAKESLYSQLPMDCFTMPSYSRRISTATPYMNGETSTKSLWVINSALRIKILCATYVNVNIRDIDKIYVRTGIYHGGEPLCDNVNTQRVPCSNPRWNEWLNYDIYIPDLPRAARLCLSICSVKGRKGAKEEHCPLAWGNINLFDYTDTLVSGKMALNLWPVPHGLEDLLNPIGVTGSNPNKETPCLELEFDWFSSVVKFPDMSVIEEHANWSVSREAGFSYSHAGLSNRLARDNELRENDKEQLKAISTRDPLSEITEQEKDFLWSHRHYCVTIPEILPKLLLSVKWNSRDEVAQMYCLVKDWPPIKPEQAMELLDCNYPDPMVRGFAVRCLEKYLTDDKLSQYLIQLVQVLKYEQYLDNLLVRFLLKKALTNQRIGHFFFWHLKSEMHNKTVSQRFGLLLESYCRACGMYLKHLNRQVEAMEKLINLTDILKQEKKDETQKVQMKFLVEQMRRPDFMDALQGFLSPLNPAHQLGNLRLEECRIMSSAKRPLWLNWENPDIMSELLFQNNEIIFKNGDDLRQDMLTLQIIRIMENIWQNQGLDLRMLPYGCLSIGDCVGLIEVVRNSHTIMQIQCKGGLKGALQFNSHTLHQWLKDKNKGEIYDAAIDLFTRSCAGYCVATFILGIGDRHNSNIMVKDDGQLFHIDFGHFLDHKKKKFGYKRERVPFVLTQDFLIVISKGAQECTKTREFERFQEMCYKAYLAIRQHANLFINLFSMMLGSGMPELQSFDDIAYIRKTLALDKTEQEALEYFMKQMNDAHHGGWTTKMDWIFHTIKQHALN

IC50 [nM]	Compound
≤ 10	COc1ccc2ncnc(N3CCOc4ccc(-c5cnc6nc(N)[nH]c6c5)cc4C3)c2c1
50 to 250	CC1=Cc2ncnc(N3CCOc4ccc(-c5cnc(N)c(S(=O)(=O)NCC6CCN(C)CC6)c5)cc4C3)c2CC1(C)C
≤ 10	CCNc1nc2ccc(-c3ccc4c(c3)CN(c3cc(C)nc5cc(F)ccc35)CCO4)cc2[nH]1
10 to 50	Cc1nc2ccc(-c3ccc4c(c3)CN(c3ncnc5c3CC(C)(C)CC5)CCO4)cc2[nH]1
10 to 50	COc1cc2c(N3CCOc4ccc(-c5ccc6nc(C)[nH]c6c5)cc4C3)ncnc2cc1O
10 to 50	Cc1nc2ccc(-c3ccc4c(c3)CN(c3ncnc5c(C)cccc35)CCO4)cc2[nH]1
50 to 250	Cc1ncnc(N2CCOc3ccc(-c4ccc5sc(N)nc5c4)cc3C2)c1Cc1ccc(F)cc1
10 to 50	Cc1ncnc(N2CCOc3ccc(-c4ccc5nc(N)[nH]c5c4)cc3C2)c1Cc1ccc(F)cc1
50 to 250	Cc1nc2ncc(-c3ccc4c(c3)CN(c3nc(-c5ccccn5)nc5c3CC(C)(C)CC5)CCO4)cc2[nH]1
10 to 50	CN1CCC(CNS(=O)(=O)c2cc(-c3ccc4c(c3)CN(c3ncnc5c3CC(C)(C)CC5)CCO4)cnc2N)CC1
250 to 1000	c1ccc2c(N3CCOc4ccc(-c5ccc6scnc6c5)cc4C3)ccnc2c1
≤ 10	Cc1ncnc(N2CCOc3ccc(-c4cnc(N)s4)cc3C2)c1Cc1ccc(F)cc1
≤ 10	CCNc1nc2ccc(-c3ccc4c(c3)CN(c3ncnc(C)c3Cc3ccc(F)cc3)CCO4)cc2[nH]1
10 to 50	Cc1nc2ccc(-c3ccc4c(c3)CN(c3ncnc(C)c3Cc3ccc(F)cc3)CCO4)cc2[nH]1
250 to 1000	Cc1nc2ccc(-c3ccc4c(c3)CN(c3ccnc(N)n3)CCO4)cc2[nH]1
50 to 250	Cc1cccc(Cc2c(C)ncnc2N2CCOc3ccc(-c4ccc5nc(C)[nH]c5c4)cc3C2)c1
